Data on 20 compounds can be found in patent US20220363665A1, “QUINOLINE COMPOUNDS FOR THE TREATMENT OF AUTOIMMUNE DISEASE” (Hoffmann-La Roche Inc., priority 2019, published 2022).

The structures appear in SMILES notation.

One series deals with T1, human TLR9 (Homo sapiens, UniProt Q9NR96).
T1 construct: host or cells: HEK293 (HEK-Blue hTLR9)
T1 sequence (Q9NR96 26-1032): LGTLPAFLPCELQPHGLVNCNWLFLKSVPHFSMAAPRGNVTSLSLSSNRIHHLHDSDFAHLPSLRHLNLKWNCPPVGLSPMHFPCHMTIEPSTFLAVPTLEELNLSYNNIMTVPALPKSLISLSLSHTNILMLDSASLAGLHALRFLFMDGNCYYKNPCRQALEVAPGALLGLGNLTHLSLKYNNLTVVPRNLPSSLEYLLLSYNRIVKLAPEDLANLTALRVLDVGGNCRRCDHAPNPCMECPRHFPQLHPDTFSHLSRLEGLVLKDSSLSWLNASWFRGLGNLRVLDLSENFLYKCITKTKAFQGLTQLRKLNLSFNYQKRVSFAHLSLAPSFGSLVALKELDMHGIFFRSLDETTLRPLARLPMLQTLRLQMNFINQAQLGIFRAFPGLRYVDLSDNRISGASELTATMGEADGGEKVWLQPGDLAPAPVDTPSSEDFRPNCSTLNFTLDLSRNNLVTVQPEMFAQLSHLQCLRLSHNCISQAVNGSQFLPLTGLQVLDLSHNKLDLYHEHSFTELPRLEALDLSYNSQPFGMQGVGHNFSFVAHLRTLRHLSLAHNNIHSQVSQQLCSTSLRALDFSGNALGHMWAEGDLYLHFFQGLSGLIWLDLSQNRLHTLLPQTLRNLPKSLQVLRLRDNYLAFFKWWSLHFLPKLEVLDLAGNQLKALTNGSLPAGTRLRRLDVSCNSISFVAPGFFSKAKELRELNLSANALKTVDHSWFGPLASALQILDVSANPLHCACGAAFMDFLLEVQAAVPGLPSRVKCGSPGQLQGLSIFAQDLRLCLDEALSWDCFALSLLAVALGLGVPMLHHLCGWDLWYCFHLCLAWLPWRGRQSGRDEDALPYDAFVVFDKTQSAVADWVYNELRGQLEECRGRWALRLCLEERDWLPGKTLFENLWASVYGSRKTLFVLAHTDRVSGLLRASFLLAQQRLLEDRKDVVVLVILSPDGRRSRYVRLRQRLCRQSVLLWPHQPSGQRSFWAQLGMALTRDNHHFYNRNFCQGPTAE
As to the kind of experiment: HEK293-Blue-hTLR-9 cells assay (SEAP reporter, ODN2006 stimulation). As to conditions: HEK293-Blue-hTLR9 cells, ODN2006, 20 hrs. It is filed as cell-based. How it is done:
The following tests were carried out in order to determine the activity of the compounds of formula (I) in HEK293-Blue-hTLR-7/8/9 cells assay.
HEK293-Blue-hTLR-9 Cells Assay:
A stable HEK293-Blue-hTLR-9 cell line was purchased from InvivoGen (Cat. #. hkb-htlr9, San Diego, Calif., USA). These cells were originally designed for studying the stimulation of human TLR9 by monitoring the activation of NF-κB. A SEAP (secreted embryonic alkaline phosphatase) reporter gene was placed under the control of the […] minimal promoter fused to five NF-κB and AP-1-binding sites. The SEAP was induced by activating NF-κB and AP-1 via stimulating HEK-Blue hTLR9 cells with TLR9 ligands. Therefore the reporter expression was declined by TLR9 antagonist under the stimulation of a ligand, such as ODN2006 (Cat. #: tlrl-2006-1, Invivogen, San Diego, Calif., USA), for incubation of 20 hrs. The cell culture supernatant SEAP reporter activity was determined using QUANTI-Blue™ kit (Cat. #: rep-qbl, Invivogen, San Diego, Calif., USA) at a wavelength of 640 nm, a detection medium that turns purple or blue in the presence of alkaline phosphatase.
HEK293-Blue-hTLR9 cells were incubated at a density of […] cells/mL in a volume of 170 μL, in a 96-well plate in Dulbecco's Modified Eagle's medium (DMEM) containing 4.5 g/L glucose, 50 U/mL penicillin, […], […], 2 mM L-glutamine, 10% (v/v) heat-inactivated fetal bovine serum with addition of 20 μL test compound in a serial dilution in the presence of final DMSO at 1% and 10 μL of 20 uM ODN2006 in above DMEM, perform incubation under 37° C. in a CO2 incubator for 20 hrs. Then 20 μL of the supernatant from each well was incubated with 180 μL Quanti-blue substrate solution at 37° C. for 2 hrs and the absorbance was read at 620˜655 nm using a spectrophotometer. The signalling pathway that TLR9 activation leads to downstream NF-κB activation has been widely accepted, and therefore similar reporter assay was modified for evaluating TLR9 antagonist.

Series [1] can be described thus: Human microsome stability assay. It is filed as in vitro ADME. The conditions noted are these: 1 μM test compound, 0.5 mg/mL protein. The procedure: The human microsomal stability assay is used for early assessment of metabolic stability of a test compound in human liver microsomes.
Human liver microsomes (Cat. NO.: 452117, Corning, USA; Cat. NO.: H2610, Xenotech, USA) were preincubated with test compound for 10 minutes at 37° C. in 100 mM potassium phosphate buffer, pH 7.4. The reactions were initiated by adding NADPH regenerating system. The final incubation mixtures contained 1 μM test compound, 0.5 mg/mL liver microsomal protein, 1 mM MgCl2, 1 mM NADP, 1 unit/mL isocitric dehydrogenase and 6 mM isocitric acid in 100 mM potassium phosphate buffer, pH 7.4. After incubation times of 0, 3, 6, 9, 15 and 30 minutes at 37° C., 300 μL of cold ACN (including internal standard) was added to 100 μL incubation mixture to terminate the reaction. Following precipitation and centrifugation, the amount of compound remaining in the samples were determined by LC-MS/MS. Controls of no NADPH regenerating system at zero and 30 minutes were also prepared and analyzed. The results were categorized as: low (<7.0 mL/min/kg), medium (7.0˜16.2 mL/min/kg) and high (16.2-23.2 mL/min/kg).

In general, IC50 refers to the concentration needed to halve the response being measured. For `C[C@@H]1CN(c2ccc(C(F)(F)F)c3ncccc23)C[C@H](C(=O)NC2CNC[C@@H]2F)O1` (stereo partly drawn) [Example 2, cis-(2R,6R)-N-(4-fluoropyrrolidin-3-yl)-6-methyl-4-[8-(trifluoromethyl)-5-quinolyl]morpholine-2-carboxamide], the half-inhibitory concentration (IC50) against human TLR9 was found to be 51.8 µM. Further, the “clearance in human liver microsomes” value in series [1] came to 6.15 mL/min/kg. In the case of `C[C@@H]1CN(c2ccc(C(F)(F)F)c3ncccc23)C[C@H](C(=O)N2CCC(N)C2)O1` (stereo partly drawn) [Example 10, (3-aminopyrrolidin-1-yl)-[(2R,6R)-6-methyl-4-[8-(trifluoromethyl)-5-quinolyl]morpholin-2-yl]methanone], at human TLR9, the IC50 was 18.4 µM. For the same compound, the “clearance in human liver microsomes” value in series [1] turned out to be 6.15 mL/min/kg. At human TLR9, `Cc1ccc(N2C[C@@H](C)O[C@@H](C(=O)NC3CCN(C)CC3)C2)c2cccnc12` [Example 16, (2R,6R)-6-methyl-N-(1-methyl-4-piperidyl)-4-(8-methyl-5-quinolyl)morpholine-2-carboxamide] yielded an IC50 of 39.9 µM. In addition, in series [1], the “clearance in human liver microsomes” value was 6.15 mL/min/kg. For `C[C@@H]1CN(c2ccc(C(F)(F)F)c3ncccc23)C[C@H](C(=O)NC[C@@H]2C[C@@H](F)CN2)O1` [Example 27, (2R,6R)-N-[[(2S,4R)-4-fluoropyrrolidin-2-yl]methyl]-6-methyl-4-[8-(trifluoromethyl)-5-quinolyl]morpholine-2-carboxamide] the same measures were 28.1 µM and 6.15 mL/min/kg.

`C[C@H]1C[C@@H](N)CN(c2ccc(Cl)c3ncccc23)C1` [Example 23, (3R,5S)-1-(8-chloro-5-quinolyl)-5-methyl-piperidin-3-amine]: the IC50 on human TLR9 amounted to 7 µM. Further, in series [1], the “clearance in human liver microsomes” value was determined as 6.15 mL/min/kg.

With `C[C@@H]1CN(c2ccc(C(F)(F)F)c3ncccc23)C[C@H](C(=O)NC2CC3CNCC32)O1` (single isomer, unassigned) [Example 49B], the IC50 on human TLR9 came out at 7.3 µM. Also, the “clearance in human liver microsomes” value in series [1] stood at 6.15 mL/min/kg. `C[C@@H]1CN(c2ccc(I)c3ncccc23)C[C@H](C(=O)NC2CCN(C)CC2)O1` [Example 38, (2R,6R)-4-(8-iodo-5-quinolyl)-6-methyl-N-(1-methyl-4-piperidyl)morpholine-2-carboxamide] had an IC50 on human TLR9 of 6 µM. In addition, the “clearance in human liver microsomes” value in series [1] came to 7.04 mL/min/kg.

The compound `C[C@@H]1CN(c2ccc(Cl)c3ncccc23)C[C@H](C(=O)NC2CCN(C)CC2)O1` [Example 24, (2R,6R)-4-(8-chloro-5-quinolyI)-6-methyl-N-(1-methyl-4-piperidyl)morpholine-2-carboxamide] had an IC50 against human TLR9 of 23.7 µM. For the same compound, in series [1], the “clearance in human liver microsomes” value worked out at 6.15 mL/min/kg. Taken in the same sequence, the figures for `C[C@@H]1CN(c2ccc(C(F)(F)F)c3ncccc23)C[C@H](C(=O)N2CCC(N)CC2)O1` [Example 12, (4-amino-1-piperidyl)-[(2R,6R)-6-methyl-4-[8-(trifluoromethyl)-5-quinolyl]morpholin-2-yl]methanone] were 6.3 µM and 6.15 mL/min/kg.

In the case of `C[C@@H]1CN(c2ccc(C(F)(F)F)c3ncccc23)C[C@H](C(=O)NC2CC3CCCC(C2)N3)O1` (single isomer, unassigned) [Example 34B], half-maximal inhibition on human TLR9 (IC50) required 10 µM. In series [1], the “clearance in human liver microsomes” value was determined as 6.17 mL/min/kg.

In turn, `C[C@@H]1CN(c2ccc(C(F)(F)F)c3ncccc23)C[C@H](C(=O)N[C@H]2CNC[C@H]2F)O1` (single isomer, unassigned) [Example 2B] had an IC50 at human TLR9 of 34.6 µM. Further, the “clearance in human liver microsomes” value in series [1] was determined as 6.15 mL/min/kg. Taken in the same sequence, the figures for `C[C@@H]1CN(c2ccc(C(F)(F)F)c3ncccc23)C[C@H](C(=O)N2CC(N)C2)O1` [Example 7, (3-aminoazetidin-1-yl)-[(2R,6R)-6-methyl-4-[8-(trifluoromethyl)-5-quinolyl]morpholin-2-yl]methanone] were 68.5 µM and 6.15 mL/min/kg. Taken in the same sequence, the figures for `C[C@@H]1CN(c2ccc(C(F)(F)F)c3ncccc23)C[C@H](C(=O)NC2CC3CCCC(C2)N3)O1` (single isomer, unassigned) [Example 34A] were 8.5 µM and 6.24 mL/min/kg. In turn, `C#Cc1ccc(N2C[C@@H](C)O[C@@H](C(=O)NC3CCN(C)CC3)C2)c2cccnc12` [Example 43, (2R,6R)-4-(8-ethynyl-5-quinolyl)-6-methyl-N-(1-methyl-4-piperidyl)morpholine-2-carboxamide] showed an IC50 on human TLR9 of 12.3 µM. Still for that read-out and setting: the value for `C[C@@H]1CN(c2ccc(C(F)(F)F)c3ncccc23)C[C@H](C(=O)NC2CNCCOC2)O1` (stereo partly drawn) [Example 14, (2R,6R)-6-methyl-N-(1,4-oxazepan-6-yl)-4-[8-(trifluoromethyl)-5-quinolyl]morpholine-2-carboxamide] was 29.4 µM; that for `C[C@@H]1CN(c2ccc(C(F)(F)F)c3ncccc23)C[C@H](C(=O)NC2CC3CCC(C2)N3)O1` (single isomer, unassigned) [Example 47A] was 10.1 µM. Still for that read-out and setting: the value for `C[C@@H]1CN(c2ccc([N+](=O)[O-])c3ncccc23)C[C@H](C(=O)N[C@@H]2CNC[C@@H]2F)O1` [Example 19, cis-(2R,6R)-N-[41-fluoropyrrolidin-3-yl]-6-methyl-4-(8-nitro-5-quinolyl)morpholine-2-carboxamide] was 50.7 µM. Same read-out and setting: then `C[C@@H]1CN(c2ccc(I)c3ncccc23)C[C@H](C(=O)NCC2CN(C)CCO2)O1` (stereo partly drawn) [Example 39, (2R,6R)-4-(8-iodo-5-quinolyl)-6-methyl-N-[(4-methylmorpholin-2-yl)methyl]morpholine-2-carboxamide], with 35.8 µM; and `C[C@@H]1CN(c2ccc(I)c3ncccc23)C[C@H](C(=O)NC2CNCC2F)O1` (stereo partly drawn) [Example 40, cis-(2R,6R)-N-[4-fluoropyrrolidin-3-yl]-4-(8-iodo-5-quinolyl)-6-methyl-morpholine-2-carboxamide], with 22.4 µM; and `C[C@@H]1CN(c2ccc(C(F)(F)F)c3ncccc23)C[C@H](C(=O)NC2CC3CNCC32)O1` (single isomer, unassigned) [Example 49A], with 10.7 µM.
